# Measurements from ChEMBL document CHEMBL3797190, “Development of 3,5-Dinitrobenzylsulfanyl-1,3,4-oxadiazoles and Thiadiazoles as Selective Antitubercular Agents Active Against Replicating and Nonreplicating Mycobacterium tuberculosis” (J Med Chem, 2016).
# What was measured:
# [1] = system: Mycobacterium tuberculosis; assay: Antimycobacterial activity against multi drug resistant Mycobacterium tuberculosis Praha 1 after 14 days by microdilution method; type: functional; details: for MIC99: Praha 1, 336 h
# [2] = system: Mycobacterium tuberculosis; assay: Antimycobacterial activity against multi drug resistant Mycobacterium tuberculosis Praha 4 after 14 days by microdilution method; details: Praha 4, 336 h
# [3] = system: Mycobacterium tuberculosis; assay: Antimycobacterial activity against multi drug resistant Mycobacterium tuberculosis 8666/2010 after 21 days by microdilution method; type: functional; details: 8666/2010, 504 h
# [4] = system: Mycobacterium tuberculosis; assay: Antimycobacterial activity against multi drug resistant Mycobacterium tuberculosis 8666/2010 after 14 days by microdilution method; type: functional; details: for MIC99: 8666/2010, 336 h
# [5] = system: Mycobacterium tuberculosis; assay: microbe, parasite or virus in culture; details: 234/2005, 336 h
# [6] = system: Mycobacterium tuberculosis; assay: Antimycobacterial activity against multi drug resistant Mycobacterium tuberculosis 9449/2007 after 14 days by microdilution method; type: functional; details: for MIC99: 9449/2007, 336 h
# [7] = system: Mycobacterium tuberculosis; assay: Antimycobacterial activity against multi drug resistant Mycobacterium tuberculosis Praha 131 after 14 days by microdilution method; type: functional; details: for MIC99: Praha 131, 336 h
# [8] = system: Mycobacterium tuberculosis; assay: Antimycobacterial activity against multi drug resistant Mycobacterium tuberculosis 234/2005 after 21 days by microdilution method; type: functional; details: 234/2005, 504 h
# [9] = system: Mycobacterium tuberculosis; assay: Antimycobacterial activity against multi drug resistant Mycobacterium tuberculosis Praha 1 after 21 days by microdilution method; type: functional; details: Praha 1, 504 h
# [10] = system: Mycobacterium tuberculosis; assay: Antimycobacterial activity against multi drug resistant Mycobacterium tuberculosis Praha 4 after 21 days by microdilution method; type: functional; details: Praha 4, 504 h
# [11] = system: Mycobacterium tuberculosis; assay: Antimycobacterial activity against multi drug resistant Mycobacterium tuberculosis 9449/2007 after 21 days by microdilution method; type: functional; details: 9449/2007, 504 h
# [12] = system: Mycobacterium tuberculosis; assay: Antimycobacterial activity against multi drug resistant Mycobacterium tuberculosis Praha 131 after 21 days by microdilution method; type: functional; details: Praha 131, 504 h
Molecule,MIC99 [1] [µM],MIC99 [2] [µM],MIC99 [3] [µM],MIC99 [4] [µM],MIC99 [5] [µM],MIC99 [6] [µM],MIC99 [7] [µM],MIC99 [8] [µM],MIC99 [9] [µM],MIC99 [10] [µM],MIC99 [11] [µM],MIC99 [12] [µM],MIC>99 [1] [µM],MIC>99 [4] [µM],MIC>99 [6] [µM],MIC>99 [7] [µM]
COc1ccc(-c2nnc(SCc3cc([N+](=O)[O-])cc([N+](=O)[O-])c3)o2)cc1,0.06,0.06,0.06,0.06,0.06,0.06,0.06,–,–,–,–,–,–,–,–,–
CO[C@H]1/C=C/O[C@@]2(C)Oc3c(C)c(O)c4c(O)c(c(/C=N/N5CCN(C)CC5)c(O)c4c3C2=O)NC(=O)/C(C)=C\C=C\[C@H](C)[C@H](O)[C@@H](C)[C@@H](O)[C@@H](C)[C@H](OC(C)=O)[C@@H]1C [RIFAMPIN],> 8,> 8,–,> 8,> 8,> 8,> 8,–,–,–,–,–,–,–,–,–
COc1ccc(-c2nnc(SCc3cc([N+](=O)[O-])cc([N+](=O)[O-])c3)s2)cc1,0.125,0.125,0.125,0.06,0.125,0.125,0.125,0.25,0.25,0.25,0.25,0.25,–,–,–,–
CN[C@@H]1[C@H](O[C@H]2[C@H](O[C@H]3[C@H](O)[C@@H](O)[C@H](N=C(N)N)[C@@H](O)[C@@H]3N=C(N)N)O[C@@H](C)[C@]2(O)C=O)O[C@@H](CO)[C@H](O)[C@H]1O [STREPTOMYCIN],–,> 32,–,> 32,–,> 32,> 32,–,–,–,–,–,–,–,–,–
NCC[C@H](O)C(=O)N[C@@H]1C[C@H](N)[C@@H](O[C@H]2O[C@H](CN)[C@@H](O)[C@H](O)[C@H]2O)[C@H](O)[C@H]1O[C@H]1O[C@H](CO)[C@@H](O)[C@H](N)[C@H]1O [AMIKACIN],–,–,–,–,–,–,> 32,–,–,–,–,–,–,–,–,–
GENTAMICIN,–,–,–,–,–,–,–,–,–,–,–,–,1,2,1,> 8
CC1COc2c(N3CCN(C)CC3)c(F)cc3c(=O)c(C(=O)O)cn1c23 (stereo unspecified) [OFLOXACIN],–,> 16,–,–,–,–,–,–,–,–,–,–,–,–,–,–
O=[N+]([O-])c1cc(CSc2nnc(-c3ccc(Cl)cc3)s2)cc([N+](=O)[O-])c1,0.25,0.25,0.5,0.25,0.5,0.25,0.5,0.5,0.5,0.5,0.5,0.5,–,–,–,–
O=[N+]([O-])c1cc(CSc2nnc(-c3ccccc3)o2)cc([N+](=O)[O-])c1,–,≤ 0.03,–,≤ 0.03,≤ 0.03,–,≤ 0.03,–,–,–,–,–,–,–,–,–
